According to patent US8426342B2, “Method for weed control in lawn” (priority 2008, dated 2013):

Experiments:
Assay type in all cases: in vivo
Poa annua = experiment: Effectivity testing against weed plants ex. 5.1, sprayable formulation on dormant Bermuda grass turf, Abbott %
Excerpt: (§1) Each plot was divided by different pre-treatments 1 week before application of the trial treatments: • A) Pre-treatment with glyphosate-isopropylammonium allowing to evaluate in this section the pre-emergence effect against weeds. • B) No pre-treatment, present winter annual weeds are received a post-emergence application.
(§2) 2005, applied on dormant turf in winter
(§3) Effectivity was rated in percent (%) herbicidal effect compared with untreated control according to the method of Abbott according to the formula [(X−Y)/X]100 where X is the absolute level/scoring of the control plants, Y is the level/scoring of the treated plants. 100% efficacy means full control; 0% efficacy means no control of the weed; all ratings above 80% are usually acceptable.

[1] = system: Cynodon dactylon (Bermuda grass); experiment: Phytotoxicity of the turf ex. 5.1, % injury vs untreated; conditions: 157 DAT
Excerpt: as §1, §2
Additionally, phytotoxicity of the turf was rated as percent (%) injury compared with untreated control.

Aphanes arvensis = experiment: Effectivity testing against weed plants ex. 5.1, Abbott %; conditions: 151 DAT
Excerpt: as §1, §2, §3

Stellaria media = experiment: as above
Excerpt: as §1, §2, §3

Cc1ccc2c(c1)[C@H](Nc1nc(N)nc([C@@H](C)F)n1)[C@@H](C)C2 (stereo in doubt) [(A21)/(A22), indaziflam]
92%: Herbicidal effect (%) on Poa annua, Pre-emergence application after pre-treatment (Poa annua; 25 g a.i./ha, 157 DAT)
33%: Herbicidal effect (%) on Aphanes arvensis, Post-emergence application without pre-treatment (Aphanes arvensis; 50 g a.i./ha)
50%: Herbicidal effect (%) on Aphanes arvensis, Pre-emergence application after pre-treatment (Aphanes arvensis; 25 g a.i./ha)
75%: Herbicidal effect (%) on Stellaria media, Pre-emergence application after pre-treatment (Stellaria media; 25 g a.i./ha, 124 DAT)
98%: Herbicidal effect (%) on Poa annua, Post-emergence application without pre-treatment (Poa annua; 25 g a.i./ha, 187 DAT) | Herbicidal effect (%) on Poa annua, Pre-emergence application after pre-treatment (Poa annua; 50 g a.i./ha, 123 DAT) | Herbicidal effect (%) on Poa annua, Post-emergence application without pre-treatment (Poa annua; 75 g a.i./ha, 123 DAT)
100%: Herbicidal effect (%) on Poa annua, Pre-emergence application after pre-treatment (Poa annua; 50 g a.i./ha, 157 DAT) | Herbicidal effect (%) on Poa annua, Post-emergence application without pre-treatment (Poa annua; 50 g a.i./ha, 187 DAT) | Herbicidal effect (%) on Poa annua, Pre-emergence application after pre-treatment (Poa annua; 50 g a.i./ha, 187 DAT) | Herbicidal effect (%) on Poa annua, Pre-emergence application after pre-treatment (Poa annua; 75 g a.i./ha, 123 DAT) | Herbicidal effect (%) on Poa annua, Post-emergence application without pre-treatment (Poa annua; 75 g a.i./ha, 157 DAT) | Herbicidal effect (%) on Poa annua, Pre-emergence application after pre-treatment (Poa annua; 75 g a.i./ha, 157 DAT) | Herbicidal effect (%) on Poa annua, Post-emergence application without pre-treatment (Poa annua; 75 g a.i./ha, 187 DAT) | Herbicidal effect (%) on Poa annua, Pre-emergence application after pre-treatment (Poa annua; 75 g a.i./ha, 187 DAT) | Herbicidal effect (%) on Aphanes arvensis, Post-emergence application without pre-treatment (Aphanes arvensis; 25 g a.i./ha) | Herbicidal effect (%) on Aphanes arvensis, Pre-emergence application after pre-treatment (Aphanes arvensis; 50 g a.i./ha) | Herbicidal effect (%) on Aphanes arvensis, Post-emergence application without pre-treatment (Aphanes arvensis; 75 g a.i./ha) | Herbicidal effect (%) on Aphanes arvensis, Pre-emergence application after pre-treatment (Aphanes arvensis; 75 g a.i./ha) | Herbicidal effect (%) on Stellaria media, Post-emergence application without pre-treatment (Stellaria media; 25 g a.i./ha, 124 DAT) | Herbicidal effect (%) on Stellaria media, Post-emergence application without pre-treatment (Stellaria media; 25 g a.i./ha, 151 DAT) | Herbicidal effect (%) on Stellaria media, Post-emergence application without pre-treatment (Stellaria media; 50 g a.i./ha, 124 DAT) | Herbicidal effect (%) on Stellaria media, Pre-emergence application after pre-treatment (Stellaria media; 50 g a.i./ha, 124 DAT) | Herbicidal effect (%) on Stellaria media, Post-emergence application without pre-treatment (Stellaria media; 50 g a.i./ha, 151 DAT) | Herbicidal effect (%) on Stellaria media, Pre-emergence application after pre-treatment (Stellaria media; 50 g a.i./ha, 151 DAT) | Herbicidal effect (%) on Stellaria media, Post-emergence application without pre-treatment (Stellaria media; 75 g a.i./ha, 124 DAT) | Herbicidal effect (%) on Stellaria media, Pre-emergence application after pre-treatment (Stellaria media; 75 g a.i./ha, 124 DAT) | Herbicidal effect (%) on Stellaria media, Post-emergence application without pre-treatment (Stellaria media; 75 g a.i./ha, 151 DAT)
77%: Herbicidal effect (%) on Poa annua, Post-emergence application without pre-treatment (Poa annua; 25 g a.i./ha, 157 DAT) | Herbicidal effect (%) on Poa annua, Post-emergence application without pre-treatment (Poa annua; 50 g a.i./ha, 123 DAT)
71%: Herbicidal effect (%) on Stellaria media, Pre-emergence application after pre-treatment (Stellaria media; 25 g a.i./ha, 151 DAT)
27%: Herbicidal effect (%) on Poa annua, Post-emergence application without pre-treatment (Poa annua; 25 g a.i./ha, 123 DAT)
96%: Herbicidal effect (%) on Poa annua, Pre-emergence application after pre-treatment (Poa annua; 25 g a.i./ha, 123 DAT) | Herbicidal effect (%) on Poa annua, Pre-emergence application after pre-treatment (Poa annua; 25 g a.i./ha, 187 DAT)
95%: Herbicidal effect (%) on Poa annua, Post-emergence application without pre-treatment (Poa annua; 50 g a.i./ha, 157 DAT)
0%: Phytotoxicity (%) on Turf ([1]; 25 g a.i./ha, section with glyphosate pre-treatment (Table 20)) | Phytotoxicity (%) on Turf ([1]; 25 g a.i./ha, section without pre-treatment (Table 21)) | Phytotoxicity (%) on Turf ([1]; 50 g a.i./ha, section with glyphosate pre-treatment (Table 20)) | Phytotoxicity (%) on Turf ([1]; 50 g a.i./ha, section without pre-treatment (Table 21)) | Phytotoxicity (%) on Turf ([1]; 75 g a.i./ha, section with glyphosate pre-treatment (Table 20)) | Phytotoxicity (%) on Turf ([1]; 75 g a.i./ha, section without pre-treatment (Table 21))
